The subject of experiment [1] is modified 16S RNA (5′-PS-G1491; 3′-phosphorothioate at G1491, C12O6 PEG mass tag). Kind of experiment: ESI-FT-ICR MS ligand binding to 27-mer 16S RNA modified at G1491. Set-up: species or system E. coli. The method, then: (§1) The following examples illustrate preferred embodiments of the present invention using mass spectrometry. Experiments were performed using a 7.0 Tesla Fourier transform ion cyclotron resonance (FT-ICR) mass spectrometer with an electrospray ionization source operating in the negative mode. A −3000 V difference was employed between the spray tip and the inlet capillary to generate the electrospray. Samples were introduced at a flow rate of 1.5 uL/min using a Harvard syringe pump and a 50 uL glass syringe. The desolvation of the electrospray droplets was aided by a flow of countercurrent gas at 1 L/min. Ions were accumulated for 1.0 sec in an intermediate hexapole ion storage region at 1.0×10^−5 mbar. Following transfer to the FT-ICR analysis cell, the image current was measured over a mass range of 500-4000 m/z. Typically, a total of 32 transients containing 512 kbytes were summed prior to Fourier transformation. The m/z values were calibrated on the signal from the [M-5H^+]^5− charge state of the free RNA at 1726.509.
An aqueous solution containing 100 mM ammonium acetate buffer (pH 7.0), 33% isopropyl alcohol, gentamicin (1 μM), 16S RNA (5 μM) and a modified 16S RNA (5.5 μM) was prepared. Modified 27-mer 16S RNA contained a 3′-phosphorothioate residue at position G1491 at the position of a G-C base pair (E. coli numbering system) and a C12O6 PEG mass tag off the 5′-hydroxyl group. Mass spectra were obtained using the standard protocol described above. The resulting mass spectra contained identifiable peaks corresponding to free 16S RNA (m/z 1726.5), free modified 16S RNA(5′-PS-G1491; m/z 1779.3), 16S complexed with the three forms of gentamicin present in the sample (16S+genta; m/z 1816-1825), and 16S(5′-PS-G1491) complexed with the three forms of gentamicin (5′-PS-G1491+genta; m/z 1869-1875). The peaks from the complexes formed from the lowest mass form of gentamicin were integrated and ion abundances determined. Fractions of 16S+genta and 5′-PS-G1491+genta complexes were determined to be 0.127 and 0.140±0.01% for the free 16S RNA and 5′-PS-G1491 RNA, respectively.
An aqueous solution containing 100 mM ammonium acetate buffer (pH 7.0), 33% isopropyl alcohol, ribostamycin (1 μM), 16S RNA (5 μM) and a modified 16S RNA (5.5 uM) was prepared. Modified 27 mer 16S RNA contained a 3′-phosphorothioate residue at position G1491 at the position of a G-C base pair (E. coli numbering system) and a C12O6 PEG mass tag off the 5′-hydroxyl group. […] The peaks from the complexes formed between ribostamycin and the RNA were integrated and ion abundances determined. Fractions of 16S+ribost and 5′-PS-G1491+ribost complexes were determined to be 0.105 and 0.100±0.005% for the free 16S RNA and 5′-PS-G1491 RNA, respectively.

For experiment [2], the system named is modified 16S RNA (5′-PS-A1492; 3′-phosphorothioate at A1492, C12O6 PEG mass tag). In words: ESI-FT-ICR MS ligand binding to 27-mer 16S RNA modified at A1492. Set-up: species or system E. coli. As to the method:
as §1
An aqueous solution containing 100 mM ammonium acetate buffer (pH 7.0), 33% isopropyl alcohol, gentamicin (1 μM), 16S RNA (5 μM) and a modified 16S RNA (5.5 μM) was prepared. […] The peaks from the complexes formed from the lowest mass form of gentamicin were integrated and ion abundances determined. Fractions of 16S+genta and 5′-PS-A1492+genta complexes were determined to be 0.121 and 0.118±0.01% for the free 16S RNA and 5′-PS-A1492 RNA, respectively.
An aqueous solution containing 100 mM ammonium acetate buffer (pH 7.0), 33% isopropyl alcohol, ribostamycin (1 μM), 16S RNA (5 μM) and a modified 16S RNA (5.5 μM) was prepared. […] The peaks from the complexes formed between ribostamycin and the RNA were integrated and ion abundances determined. Fractions of 16S+ribost and 5′-PS-A1492+ribost complexes were determined to be 0.101 and 0.082±0.005% for the free 16S RNA and 5′-PS-A1492 RNA, respectively.

With `NC[C@H]1O[C@H](O[C@H]2[C@H](O[C@@H]3O[C@H](CO)[C@@H](O)[C@H]3O)[C@@H](O)[C@H](N)C[C@@H]2N)[C@H](N)[C@@H](O)[C@@H]1O` [ribostamycin], in experiment [1] (Example 5: ribostamycin 1 μM), the “Amount of 5′-PS-G1491+ribost as % of the amount of 16S+ribost” value amounted to 94%. Moreover, in experiment [1] (Example 5: ribostamycin 1 μM, 16S RNA 5 μM with 5′-PS-G1491 RNA 5.5 uM, 100 mM ammonium acetate pH 7.0, 33% isopropyl alcohol), the “Fraction of 5′-PS-G1491+ribost complex” value is on record as 0.100±0.005%. The “Amount of 5′-PS-A1492+ribost as % of the amount of 16S+ribost” value in experiment [2] (Example 7: ribostamycin 1 μM) was 80%.
Take gentamicin: the “Amount of 5′-PS-G1491+genta as % of the amount of 16S+genta” value in experiment [1] (Example 4: gentamicin 1 μM) came to 110%. For the same compound, the “Fraction of 5′-PS-G1491+genta complex” value in experiment [1] (Example 4: gentamicin 1 μM (lowest mass form integrated), 16S RNA 5 μM with 5′-PS-G1491 RNA 5.5 μM, 100 mM ammonium acetate pH 7.0, 33% isopropyl alcohol) is on record as 0.140±0.01 fraction (unitless). Also, the “Amount of 5′-PS-A1492+genta as % of the amount of 16S+genta” value in experiment [2] (Example 6: gentamicin 1 μM) amounted to 97%. Further, the “Fraction of 5′-PS-A1492+genta complex” value in experiment [2] (Example 6: gentamicin 1 μM (lowest mass form integrated), 16S RNA 5 μM with 5′-PS-A1492 RNA 5.5 μM, 100 mM ammonium acetate pH 7.0, 33% isopropyl alcohol) is reported as 0.118±0.01 fraction (0–1).

For the origin of these results see patent publication US6787315B2, “Methods for identifying ligand binding sites in a biomolecule” (priority 2001, dated 2004).
